In PubChem BioAssay AID651592 (Sanford-Burnham Center for Chemical Genomics, 2012):

How the values were obtained:
[1] = molecular target: Interleukin-8 (Homo sapiens) (UniProt P10145); experiment: inhibitors of NFkB activation in CF airway cells, SAR follow-up, KKLEB cells, panel, IL8 HTRF, NFkB-GFP (AID 651592); details: PAF/TNFa-induced NFkB-GFP / IL8 HTRF;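 note: immortalized cystic fibrosis airway epithelial KKLEB cells with an NF-kB GFP reporter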
[2] = as above; details: PAF/TNFa-induced NFkB-GFP / IL8 HTRF, CF-PAF assay
IL8 = experiment: as above; details: PAF/TNFa-induced NFkB-GFP / IL8 HTRF, mean of runs, mean IC50 across panel replicates
[3] = mean of runs, mean IC50 across panel replicates

Chain of Interleukin-8 (Homo sapiens) (P10145 whole entry, looked up): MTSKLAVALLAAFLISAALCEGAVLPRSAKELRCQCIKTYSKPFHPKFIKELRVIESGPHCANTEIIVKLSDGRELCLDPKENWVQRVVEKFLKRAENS

| SMILES | IC50 ([1]; IL8, PAF-induced, run 1) [µM] | IC50 ([1]; IL8, PAF-induced, run 2) [µM] | IC50 ([1]; IL8, PAF-induced, run 3) [µM] | IC50 ([1]; IL8, PAF-induced, run 4) [µM] | IC50 ([1]; IL8, PAF-induced, run 5) [µM] | IC50 ([1]; IL8, PAF-induced, run 6) [µM] | IC50 ([1]; IL8, TNFa-induced, run 1) [µM] | IC50 ([1]; IL8, TNFa-induced, run 2) [µM] | IC50 ([1]; IL8, TNFa-induced, run 3) [µM] | IC50 ([1]; IL8, TNFa-induced, run 4) [µM] | IC50 ([1]; IL8, TNFa-induced, run 5) [µM] | IC50 ([1]; IL8, TNFa-induced, run 6) [µM] | IC50 [2, 3] [µM] | IC50 ([2]; run 1) [µM] | IC50 ([2]; run 2) [µM] | IC50 ([2]; run 3) [µM] | IC50 ([2]; run 4) [µM] | IC50 ([2]; run 5) [µM] | IC50 ([2]; run 6) [µM] | IC50 (IL8; PAF-induced) [µM] | also measured |
| --- | --- | --- | --- | --- | --- | --- | --- | --- | --- | --- | --- | --- | --- | --- | --- | --- | --- | --- | --- | --- | --- |
| O=C(Nc1ccc(N2CCN(C(=O)c3ccccc3)CC2)cc1)c1ccncc1 | > 66 | > 66 | 4.58 | > 66 | > 66 | > 66 | > 66 | > 66 | > 66 | > 66 | > 66 | > 66 | 39.7 | 32.7 | 38.2 | 48.1 | > 66 | > 66 | > 66 | 55.8 | IC50 (IL8; TNFa-induced): > 66 µM |
| O=C(Nc1ccc(N2CCN(C(=O)c3ccc(F)cc3)CC2)cc1)c1cncc(Br)c1 | 8.79 | 9.88 | 24.9 | 2.03 | 3.53 | 7.95 | > 66 | > 66 | > 66 | > 66 | 10.3 | 25.4 | 3.01 | 2.5 | 3.02 | 3.34 | 2.31 | 3.07 | 3.82 | 9.52 | IC50 (IL8; TNFa-induced): 50 µM |
| O=C(Nc1ccc(N2CCN(C(=O)c3ccccc3F)CC2)cc1)c1cccc(Br)c1 | > 66 | > 66 | > 66 | > 66 | > 66 | > 66 | > 66 | > 66 | > 66 | > 66 | > 66 | 6.25 | 42.6 | 18.1 | 18.3 | 21.5 | > 66 | > 66 | > 66 | > 66 | IC50 (IL8; TNFa-induced): 56 µM |
| O=C(Nc1ccc(N2CCN(C(=O)c3ccccc3Cl)CC2)cc1)c1ccccn1 | > 66 | 12.5 | 19.7 | 3.66 | 5.84 | 53.2 | > 66 | > 66 | > 66 | > 66 | > 66 | > 66 | 39.5 | 8.15 | 14.4 | 16.5 | > 66 | > 66 | > 66 | 19 | IC50 (IL8; TNFa-induced): > 66 µM |
| O=C(Nc1ccc(N2CCN(C(=O)c3ccc(F)cc3)CC2)cc1)c1cccc(Br)c1 | > 66 | > 66 | > 66 | > 66 | > 66 | > 66 | > 66 | > 66 | > 66 | > 66 | > 66 | > 66 | 43.9 | 21.5 | 21.6 | 22.5 | > 66 | > 66 | > 66 | > 66 | IC50 (IL8; TNFa-induced): > 66 µM |
| O=C(Nc1ccc(N2CCN(C(=O)c3ccccc3Cl)CC2)cc1)c1cccnc1 | > 66 | > 66 | > 66 | > 66 | > 66 | > 66 | > 66 | > 66 | > 66 | > 66 | > 66 | > 66 | 25.3 | 3.68 | 4.18 | 4.81 | > 66 | > 66 | 7.26 | > 66 | IC50 (IL8; TNFa-induced): > 66 µM |
| CCOc1ccc(NCc2cc3c(C(C)(C)C)nn(-c4ccc(Cl)cc4)c3[nH]c2=O)cc1 | 0.216 | 0.248 | 0.277 | 0.149 | 0.236 | 0.246 | > 66 | > 66 | > 66 | > 66 | > 66 | > 66 | 17.9 | 9.61 | 10.1 | 10.2 | > 66 | 0.52 | 10.8 | 0.228 | IC50 (IL8; TNFa-induced): > 66 µM |
| O=C(Nc1ccc(N2CCN(C(=O)c3ccccc3F)CC2)cc1)c1cc(Br)cc(Br)c1 | > 66 | > 66 | > 66 | > 66 | > 66 | > 66 | > 66 | > 66 | > 66 | > 66 | > 66 | > 66 | > 66 | > 66 | > 66 | > 66 | > 66 | > 66 | > 66 | > 66 | IC50 (IL8; TNFa-induced): > 66 µM |
